Where “and” joins values, the source holds several entries; their conditions need not be identical. Equal entries are not always repeated. Where two headings read alike, the source gives them in different places.
How the values were obtained:
[1] = cited from earlier work
[2] = orthotopically implanted C6 glioma, rats; cited from earlier work
[3] = Systemic PK after oral administration in rats; format: in vivo; conditions: plasma, oral 25 mg/kg, male SD rats
[4] = Intracerebral microdialysis and plasma PK after i.p. administration in rats; format: in vivo, male SD rats
[5] = mouse, microsomes
[6] = rat, microsomes
[7] = microsomes
[8] = system: AMPK; conditions: greater potency than Compound C; cited from earlier work
[9] = system: ULK1; conditions: read-out: IC50 ULK1; kinase inhibition assays; cited from earlier work
[10] = read-out: cytotoxicity IC50; cited from earlier work
[11] = cited from earlier work; remark: listed apart in the source
[12] = In vitro metabolism in rat liver microsomes; conditions: rat (IGS SD) liver microsomes
[13] = In vitro metabolism in mouse liver microsomes; conditions: mouse (C57BL/6) liver microsomes
[14] = In vitro metabolism in human liver microsomes
[15] = brain ECF, i.p. 25 mg/kg, male SD rats
[16] = i.p. 25 mg/kg, male SD rats, 25 mg/kg
[17] = plasma unbound, i.p. 25 mg/kg, male SD rats
[18] = plasma, i.p. 25 mg/kg, male SD rats
[19] = plasma, i.p. 25 mg/kg, male SD rats, 25 mg/kg

For Cn1nnc2c(C(N)=O)ncn2c1=O [temozolomide], the elimination half-life [1] is listed as “approximately 2 h”.
For N#Cc1ccc(C(c2ccc(C#N)cc2)n2cncn2)cc1 [letrozole], the “tumoral uptake relative to normal brain” value [2] is given as “two-fold higher”.
For CNC(=O)c1ccccc1Oc1nc(Nc2cc(OC)c(OC)c(OC)c2)ncc1Br [SBI-0206965], the AUC0-inf [3] was 703.74 ± 222.82 ng·h/mL, the “AUC0–5” value [3] was 666.71 ± 215.16 ng·h/mL and the Cmax [3] was 539.06 ± 219.94 ng/mL. The Tmax ([3]; non-compartmental analysis) was 15 min, the T1/2 ([3]; 25 mg/kg) was […] and the AUC0-inf [4, 15] was 783.67 ± 494.92 ng·h/mL. The “AUC0–5” value [4, 15] was 660.81 ± 464.32 ng·h/mL, the Tmax [4, 15] was 39 ± 12 min and the Cmax ([4]; brain ECF, i.p. 25 mg/kg, male SD rats, 25 mg/kg) was 358 ng/mL and 360 ng/mL and 358.33 ± 205.39 ng/mL. The “AUC0–5 ratio (brain ECF/plasma unbound)” value [4, 16] was […], the “Cmax ratio (brain ECF/plasma unbound)” value [4, 16] was […] and the “time to plasma and brain ECF peak levels” value ([4]; plasma and brain ECF, summary in abstract) was 0.25 to 0.65 h. For the same compound, the Cmax ([4]; plasma unbound (corrected for protein binding), i.p. 25 mg/kg, male SD rats) was 615.03 ± 173.65 ng/mL, the AUC0-inf [4, 17] was 798.89 ± 387.87 ng·h/mL and the “AUC0–5” value [4, 17] was 736.63 ± 358.26 ng·h/mL. For the same compound, the AUC0-inf [4, 18] was 4549.50 ± 2208.84 ng·h/mL, the “AUC0–5” value [4, 18] was 4194.92 ± 2040.20 ng·h/mL and the Tmax [4, 18] was 15 min. For the same compound, the Cmax [4, 19] was 3502 ng/mL and 3502.42 ± 988.90 ng/mL, the T1/2 [4, 19] was 63.6 ± 42 min and the “time to peak plasma concentration” value ([4]; plasma, i.p. 25 mg/kg, rats) was 15 min. The “brain partitioning (ratio of Cmax and AUC in brain ECF to unbound plasma)” value ([4]; rats, plasma corrected for protein binding) was […], the Cmax ([4]; read-out: brain ECF Cmax, brain ECF, i.p. 25 mg/kg, rats) was 750 nM and the elimination half-life ([4]; summary in abstract) was 60 to 120 min. The “CLint, app” value [5] was 111.06 µL/min/mg, the “CLint, app” value [6] was 42 µL/min/mg and the “CLint, app” value ([7]; human) was 71.96 µL/min/mg. For the same compound, the “CLint, scaled (estimated in-vitro hepatic intrinsic clearance)” value [7] was 68 mL/min/kg body weight, the “AMPK inhibition potency relative to Compound C” value [8] was 40 fold and the IC50 [9] was […]. For the same compound, the IC50 [10] was 5 to 10 µM, the logP [11] was 3.8 and the T1/2 [12] was 16.5 min. The T1/2 [13] was 6.24 min and the T1/2 [14] was 9.63 min.

From PMC10154080 (Investigational new drugs, 2022)
